Laboratory results: patent US20060135569A1, “Use of benzisoselenazolone compounds against ischemic myocardial damage” (priority 2002, published 2006)
Marks after values point to notes of the source that are not given here.

Columns and labels:
[1] = system: acute myocardial ischemia in anesthetized dogs; experiment: Acute myocardial ischemia and infarction in anesthetized dogs; format: in vivo, dog
Procedure: Dogs were divided into three groups: 1, vehicle control group, PEG 1 ml/kg, n=5; 2, dilthiazem group, 5 mg/kg, n=5; 3, IMM-004 group, 30 mg/kg, n=5. The tested drugs were prepared in distilled water at volume of 1 ml/kg. The tested items were administrated via duodenum by animals.

[2] = system: isolated rat hearts subjected to ischemia-reperfusion (I/R); experiment: Isolated heart subjected to ischemia/reperfusion injury (arrhythmia); settings: 10^−6 M; isolated heart ischemia/reperfusion
Procedure: Based on the pre-electrophysiological cell model screening, we have compared the inhibition ratios of the outward current by reverse-transportation of Na^+/Ca^2+ exchange, and further in vitro tests on isolated rat hearts subjected to ischemia-reperfusion (I/R) were conducted. Prolongation of ventricular arrhythmic, incidence rate of ventricular extrasystole, ventricular tachycardia/ventricular fibrillation (VT/VF) were recorded to evaluate the protective actions of drugs on myocardial injury.
On the basis of above screening results obtained from electrophysiological studies, and the result from comparative study on the research of the inhibitory effect of compounds on reverse mode Na^+/Ca^2+ exchange process, 7 effective compounds were subjected to in vitro study. Among which, IMM-313, IMM-004 and IMM-132 have structures containing chlorine; IMM-127, IMM-128 and IMM-129 have structures containing fluorine; and IMM-065 has a structure containing OH. The experiment performed in the isolated heart subjected to ischemia/reprefusion insult. Prolongation of ventricular arrhythmic, incidence of ventricular extrasystole, ventricular tachycardia/ventricular fibrillation (VT/VF) were recorded in order to evaluate the protective actions of drugs on myocardial injury.

TA100 = experiment: Ames test, strain TA100; format: cell-based
Procedure: (§1) To assess the mutagenic effects of 5 compounds (IMM-004; IMM-065; IMM-127; IMM-128; IMM-313), the Ames test was performed in 4 strains (TA97; TA98; TA100; TA102). The experiment was conducted with compounds at 4 concentration levels (0.5, 5, 50 and 500 μg/dish). […]

TA98 = experiment: Ames test, strain TA98; format: cell-based
Procedure: as §1

TA97 = experiment: Ames test, strain TA97; format: cell-based
Procedure: as §1

TA97; TA98; TA100; TA102 = experiment: Ames (mutagenesis) test, overall result in 4 strains; format: cell-based; settings: 0.5, 5, 50 and 500 μg/dish
Procedure: as §1

TA102 = experiment: Ames test, strain TA102; format: cell-based
Procedure: as §1

Na^+/Ca^2+ exchanger = target: T1, Na^+/Ca^2+ exchanger (Cavia porcellus, UniProt P48766); experiment: Na^+/Ca^2+ exchange current (INa—Ca), whole-cell patch clamp, intracellular Na^+ overload cell model; format: cell-based, guinea pig
T1 construct: endogenous in cells; host or cells: freshly isolated guinea pig ventricular myocytes
From the text: 1. Establishment of Assaying Method for Biphasical Current Detection in Na^+/Ca^2+ Exchange System
Since the reverse mode of Na^+/Ca^2+ exchange process is one of the main mechanisms involving in ischemia/reperfusion insult, it is of great importance to establish cell model represented reverse mode Na^+/Ca^2+ exchange process for the development of drugs against ischemic injury. Therefore, we successfully established cell model of reverse mode Na^+/Ca^2+ exchange system by intracellular Na^+ dialysis technique, and recorded Na^+/Ca^2+ exchange currents by patch clamp experiment.
Internal solution contained certain concentration of NaCl was filled to the microcatheter, and ion exchange process between the cellular and internal solutions was conducted after whole cell currents were recorded by patch clamp. Na^+ contained in the internal solution was dialyzed into the cell; result in the high intracellular Na^+ concentration. After that, the cell was champed at a holding potential of −40 mV, then depolarized to +60 mV and followed by a conversely declining ramp stimuli at a speed of 80 mV·s^−1 and 2 s conditioning pulse, then repolarized to −100 mV with a frequency of 0.05 Hz. Under the stimulation protocol, current from outward to the inward direction was recorded by perfusing modified biphasical Tyrode solution (in which the outward and inward currents can be recorded simultaneously) with the addition of 1 mmol·L^−1 of BaCl2 and 2 mmol·L^−1 of CsCl to block K^+ channels, 1 μmol·L^−1 of verapamil to block L-type Ca^2+ channels, and 20 μmol·L^−1 of ouabain to block Na^+/K^+ ATPase, and 20 mmol·L^−1 of TEA to block potassium channels. The recorded inward currents were presented in a linear manner owing to the blockade of other time-dependent currents. With the increase of intracellular Na^+ level and prolongation of time, the reverse mode of Na^+/Ca^2+ exchange process was activated. […] Under such experimental conditioning, the maximum reverse mode current was recorded 3 min after cell crushed. No significant “run-down” was observed within the record period of 8 minutes. The inward and outward current were inhibited by 5 mmol·L^−1 of Ni^2+ treatment, and the experiment result in two current-voltage curves in the absence or presence of Ni^2+. The Ni^2+ sensitive current, also called electrophysiological Na^+/Ca^2+ exchange current (INa·Ca), was the minus result of two current-voltage curves. The reverse mode potential of INa—Ca was about −20 mV
Male guinea pigs weighting 250˜280 g provided by the Animal Center of the Chinese Academy of Medical Sciences were hammered and sacrificed. The chest was opened and the heart was removed quickly. Fatty tissue and pericardium were removed in a Ca^2+-free solution at 4° C., and heart was sequentially mounted on a Langendorff apparatus. First, the heart was perfused conversely via the aorta for 6 min with Ca^2+-free solution in order to wash out residual blood, then the heart expands and the color of it turns to pink. Then the heart was perfused with Ca^2+-free solution containing 0.1 mg/ml of pronase E, 0.5 mg/ml defatted bovine serum albumin (BSA) and 150 μM Ca^2+ for 2˜3 min, until the heart expanded and became soft. The atrium was removed, and the digested heart was minced with scissors, stirred in a beaker at 37° C. for 5˜10 min. The supernatant was diluted with Ca^2+-free solution containing 0.5 mg/ml BSA and 1.8 mM Ca^2+. The supernatant was placed at room temperature (20˜24° C.) for 1 hr and then subjected to the experiment. During the whole perfusion period, pressure was kept at 70 cmH2O and the temperature of solution was kept at 37° C. with continuously gassed with 95% O2 and 5% CO2.
Rod-shaped cells with clear striations and intact membrane were used. […]

[3] = N-BT staining, Dilthiazem 5 mg/kg, IMM-004 30 mg/kg, % according to b137
[4] = Example 1 table, myocardial cell
[5] = screening of 22 candidate compounds

## COc1ccc([C@@H]2Sc3ccccc3N(CCN(C)C)C(=O)[C@@H]2OC(C)=O)cc1 [Dilthiazem, reference compound]
[1]; 5 mg/kg
  blood oxygen concentration: Significant increase
  myocardial oxygen consumption: decrease
[1]; 5 mg/kg via duodenum, from 90 min, lasted for 180 min after administration
  severity of myocardial ischemia (Σ-ST), in words: reduced
[1]; [3]
  Infarction area/ heart area: 1.54 ± 0.40
  Infarction area/ventricle area: 3.54 ± 3.74
[1]; N-BT staining, Dilthiazem 5 mg/kg, IMM-004 30 mg/kg, X ± SD
  Infarction area mm^2: 186.50 ± 21.2*** mm^2
[1]; N-BT staining, IMM-004 30 mg/kg, dilthiazem 5 mg/kg
  Myocardial infarction size, in words: significantly reduced
[1]; after treatment, dilthiazem 5 mg/kg, IMM-004 30 mg/kg
  Coronary flows, in words: significantly increased

## O=c1c2cc(F)ccc2[se]n1-c1cccnc1 [IMM-128, 5-fluoro-2-(3-pyridyl)-1,2-benz-isoselenazol-3(2H)-one]
[2]
  AAT: arrhythmic occurrence time, Time: 22.10 ± 3.49 min
  VF (ventricular fibrillation) Incidence rate (%): 50%
  VPS (ventricular premature beats) Incidence rate (%): 25%
  VT (ventricular tachycardia) Incidence rate (%): 50%
TA100; 0.5 μg/dish
  TA100 +S9: 167.33 ± 17.98
  TA100 −S9: 127.33 ± 20.04
TA100; 5 μg/dish
  TA100 +S9: 149.67 ± 19.60
  TA100 −S9: 116.50 ± 30.50
TA100; 50 μg/dish
  TA100 +S9: 141.33 ± 16.36
  TA100 −S9: 135.00 ± 14.99
TA100; 500 μg/dish
  TA100 +S9: 107.67 ± 13.47
  TA100 −S9: 100.00 ± 33.67
TA98; 0.5 μg/dish
  TA98 +S9: 40.67 ± 16.05
  TA98 −S9: 64.00 ± 6.48
TA98; 5 μg/dish
  TA98 +S9: 46.00 ± 3.00
  TA98 −S9: 69.33 ± 12.81
TA98; 50 μg/dish
  TA98 +S9: 56.00 ± 9.63
  TA98 −S9: 71.33 ± 12.26
TA98; 500 μg/dish
  TA98 +S9: 31.33 ± 6.24
  TA98 −S9: 83.67 ± 5.79
TA97; 0.5 μg/dish
  TA97 +S9: 70.00 ± 11.86
  TA97 −S9: 59.33 ± 10.27
TA97; 5 μg/dish
  TA97 +S9: 63.00 ± 31.00
  TA97 −S9: 52.67 ± 3.21
TA97; 50 μg/dish
  TA97 +S9: 60.33 ± 17.59
  TA97 −S9: 59.00 ± 3.56
TA97; 500 μg/dish
  TA97 +S9: 78.50 ± 21.50
  TA97 −S9: 65.33 ± 2.35
TA97; TA98; TA100; TA102
  mutagenic effect (Ames test): No evidence for a mutagenic effect
TA102; 0.5 μg/dish
  TA102 +S9: 277.33 ± 15.17
  TA102 −S9: 214.67 ± 8.22
TA102; 5 μg/dish
  TA102 +S9: 234.67 ± 80.37
  TA102 −S9: 270.67 ± 12.04
TA102; 50 μg/dish
  TA102 +S9: 333.00 ± 60.83
  TA102 −S9: 210.00 ± 31.54
TA102; 500 μg/dish
  TA102 +S9: 274.00 ± 37.98
  TA102 −S9: 296.00 ± 22.86
Na^+/Ca^2+ exchanger; [4]
  Inhibitory rate of inward INa—Ca (%): 42%
  Inhibitory rate of outward INa—Ca (%): 44%
Na^+/Ca^2+ exchanger; [5]
  Inhibitory rate of inward INa—Ca (%): 42%
  Inhibitory rate of outward INa—Ca (%): 44* %
